Measurements taken from patent publication US7741283B2, “Compositions and methods for inhibiting cell proliferation” (St. Louis University, priority 2003, dated 2010).
Entries after “also recorded” stand apart in the source; their conditions may differ.

Experiments:
IRS-2 [1] = assay: 32P metabolic labeling and immunoprecipitation of IRS-2, MB102-16 cells; assay type: cell-based, mink; conditions: MB102-16 cells (αIβI); IGFBP-3 1 μg/ml, GM-CSF 1 nM
IRS-2 [2] = assay: 32P metabolic labeling and immunoprecipitation of IRS-2, MB102-9 cells; assay type: cell-based, mink; conditions: MB102-9 cells (αIβII); IGFBP-3 1 μg/ml, GM-CSF 1 nM
[3] = tested on: TβR-V purified from bovine liver plasma membranes; assay: 125I-IGFBP-3 / 125I-TGF-β1 affinity labeling of purified TβR-V; assay type: binding; conditions: DSS, β1^25(41-65) 20 μM, RAP 10-40 μg/ml, α2M* 100 nM, lactoferrin 100 nM
TβR-V = assay: 125I-ligand affinity labeling (binding and cross-linking) in Mv1Lu cells; parameters: species or system mink
Method: FIG. 2 depicts the effects of RAP on ^125I-IGFBP-3 (A) and ^125I-TGF-β1 binding (B) to TβR-V and on IGFBP-3-induced inhibition of DNA synthesis (C) in Mv1Lu cells. (A,B) Cells were incubated with ^125I-IGFBP-3 (10 nM) or ^125I-TGF-β1 (0.1 nM) in the presence of various concentrations of RAP as indicated. After 2.5 hr at 0° C., the ^125I-IGFBP-3-TβR-V complex or ^125I-TGF-β1-TGF-β receptor complexes were cross-linked by DSS and analyzed by autoradiography. The relative intensity of the ^125I-IGFBP-3-TβR-V complex or ^125I-TGF-β1-TGF-β receptor complex on the dried gel was quantified by a PhosphoImager. The arrow indicates the location of the ^125I-TGF-β-TβR-V complex or the ^125I-IGFBP-3-TβR-V complex. The bracket indicates the locations of the ^125I-TGF-β1-TβR-III and -TβR-II complexes. The ^125I-TGF-β1-TβR-I complex co-migrated with the dye front. The ^125I-TGF-β1-TβR-II complex can be seen upon longer time exposure of the autoradiogram. (C) Cells were incubated with various concentrations, as indicated, of IGFBP-3 and GST-RAP (100 μg/ml). […] After further incubation for 10 hr, the DNA synthesis of cells was determined by measuring [methyl-^3H] thymidine incorporation into cellular DNA. […]
Mv1Lu cells are a well-established model system for investigating TGF-β activities and receptor functions. […] After further incubation for 10 hr, DNA synthesis of the cells was determined.

Mv1Lu cells = assay: [methyl-3H] thymidine incorporation (DNA synthesis), Mv1Lu cells; assay type: cell-based, mink
DR26 cells = assay: [methyl-3H] thymidine incorporation, DR26 cells; assay type: cell-based, mink; conditions: DR26 cells, in the presence of insulin
Method: (A,B) DR26 cells were incubated with various concentrations as indicated of IGFBP-3 in the absence (A) and presence (B) of various concentrations of insulin. After 18 hr at 37° C., the [methyl-^3H] thymidine incorporation into cellular DNA was determined. (C,D,E) Mv1Lu, DR26 and R1B cells metabolically labeled with ^[…]-orthophosphate for 2 hr were treated with IGFBP-3 (1:g/ml) or insulin (10 nM) (C). DR26 cells metabolically labeled with ^[…]-orthophosphate for 2 hr were treated with or without IGFBP-3 (1 μg/ml) in the presence of various concentrations of TGF-β1 as indicated (D). Mv1Lu cells expressing αIβI and αIβII chimeric receptors (MB102-16 and MB102-9 cells, respectively) metabolically labeled with ^[…]-orthophosphate for 2 hr were treated with or without IGFBP-3 (1 μg/ml) or GM-CSF (1 nM) (E). After 2 hr at 37° C. (in the absence of […]-orthophosphate in the medium), the ^[…]-labeled IRS-2 was immunoprecipitated and analyzed by 7.5% SDS-PAGE and autoradiography. […]
Mv1Lu cells were plated on 24-well clustered dishes and incubated with various concentrations of TGF-β1 or IGFBP-3 in DMEM containing 0.1% fetal calf serum. After incubation at 37° C. for 18 hr, the cells were pulse-labeled with 1 μCi of [methyl-^3H]thymidine at 37° C. for 2 hr and the [methyl-^3H] thymidine incorporation into cellular DNA was determined as described previously (59). […]

IRS-2 [4] = assay: 32P metabolic labeling and immunoprecipitation of IRS-2, Mv1Lu cells; assay type: cell-based, mink; conditions: Mv1Lu, IGFBP-3 1 μg/ml […] then factor 10 nM (TGF-β1 20 pM) 0.5 hr
32D/IR/IRS-2 cells = assay: [methyl-3H] thymidine incorporation, 32D/IR/IRS-2 cells; assay type: cell-based, murine; conditions: insulin 10 nM

GM-CSF: granulocyte/macrophage colony-stimulating factor
Specific dephosphorylation (mobility change) of IRS-2 (IRS-2 [1]): only induced specific dephosphorylation (electrophoretic mobility change) of IRS-2 in MB102-9 cells | Specific dephosphorylation (mobility change) of IRS-2 (IRS-2 [2]): induce moderate specific dephosphorylation

RAP: receptor-associated protein, an LRP antagonist which blocks binding of all known ligands to LRP
^125I-TGF-β1 binding to purified TβR-V ([3]; 0.1 nM 125I-TGF-β1, […] 0° C.): appeared to inhibit | ^125I-IGFBP-3 binding to purified TβR-V ([3]; 10 nM 125I-IGFBP-3, […] 0° C.): appeared to inhibit | ^125I-TGF-β1 binding to TβR-V and TβR-III (TβR-V; 0.1 nM 125I-TGF-β1): only partially inhibited | IC50, inhibition of ^125I-IGFBP-3 binding to TβR-V (TβR-V; 10 nM 125I-IGFBP-3): ~5 µg/mL

insulin: insulin [reference compound]
Blocking of IGFBP-3-induced growth inhibition (Mv1Lu cells; Mv1Lu cells): completely blocked | Effect alone on TGF-β1-induced inhibition of DNA synthesis (Mv1Lu cells; insulin 10 nM or cyclic RGD peptide 0.01 μg/ml alone): did not block; also recorded: Neither insulin (10 nM) nor the cyclic RGD peptide (0.01 μg/ml) alone affected | Reversal of IGFBP-3 inhibition of DNA synthesis (DR26 cells): completely reversed | Blocking of IGFBP-3-induced specific dephosphorylation of IRS-2 by growth factors/cytokines (IRS-2 [4]): blocked | Effect on IGFBP-3-induced growth inhibition (32D/IR/IRS-2 cells): capable of blocking | Effect on TGF-β1-induced growth inhibition (32D/IR/IRS-2 cells): partially reversing
